Assay results published in PubChem BioAssay AID1963967 (Molecular Pharmacology Branch, DTP, NCI, 2024).
Several values for one entry are separate records, joined by “and”; a condition that tells them apart may be missing. Identical values can stand only once.

Test system: 855422-203-R-J1-PDC spheroids with HUVEC/MSC, viability
Assay: Anticancer human tumor 855422-203-R-J1-PDC patient-derived bladder carcinoma cell line growth inhibition [PI3K]
Conditions: for viability, T/C: stronger effect = lower value
Summary of the method: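 High-throughput combination screen: PI3K inhibitors crossed with targeted small molecules on complex spheroids of tumor cells, HUVEC and MSCs at 37 degrees C, 5% CO2. Top concentration was at or near clinical Cmax (otherwise 10 microM), with half-log decrements.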

[1] = curve of first compound, second compound 0.0316 µM
[2] = curve of first compound, second compound 0.1 µM
[3] = curve of first compound, second compound 0.316 µM
[4] = curve of first compound, second compound 1 µM
[5] = curve of first compound, second compound 3.16 µM
[6] = curve of first compound, second compound 10 µM
[7] = second compound 0.0316 µM, first compound 0.0316 µM
[8] = second compound 0.0316 µM, first compound 0.1 µM
[9] = second compound 0.0316 µM, first compound 0.316 µM
[10] = second compound 0.0316 µM, first compound 1 µM
[11] = second compound 0.0316 µM, first compound 3.16 µM
[12] = second compound 0.0316 µM, first compound 10 µM
[13] = second compound 0.1 µM, first compound 0.0316 µM
[14] = second compound 0.1 µM, first compound 0.1 µM
[15] = second compound 0.1 µM, first compound 0.316 µM
[16] = second compound 0.1 µM, first compound 1 µM
[17] = second compound 0.1 µM, first compound 3.16 µM
[18] = second compound 0.1 µM, first compound 10 µM
[19] = second compound 0.316 µM, first compound 0.0316 µM
[20] = second compound 0.316 µM, first compound 0.1 µM
[21] = second compound 0.316 µM, first compound 0.316 µM
[22] = second compound 0.316 µM, first compound 1 µM
[23] = second compound 0.316 µM, first compound 3.16 µM
[24] = second compound 0.316 µM, first compound 10 µM
[25] = second compound 1 µM, first compound 0.0316 µM
[26] = second compound 1 µM, first compound 0.1 µM
[27] = second compound 1 µM, first compound 0.316 µM
[28] = second compound 1 µM, first compound 1 µM
[29] = second compound 1 µM, first compound 3.16 µM
[30] = second compound 1 µM, first compound 10 µM
[31] = second compound 3.16 µM, first compound 0.0316 µM
[32] = second compound 3.16 µM, first compound 0.1 µM
[33] = second compound 3.16 µM, first compound 0.316 µM
[34] = second compound 3.16 µM, first compound 1 µM
[35] = second compound 3.16 µM, first compound 3.16 µM
[36] = second compound 3.16 µM, first compound 10 µM
[37] = second compound 10 µM, first compound 0.0316 µM
[38] = second compound 10 µM, first compound 0.1 µM
[39] = second compound 10 µM, first compound 0.316 µM
[40] = second compound 10 µM, first compound 1 µM
[41] = second compound 10 µM, first compound 3.16 µM
[42] = second compound 10 µM, first compound 10 µM
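Further: agents incubated with spheroids for one week before read-out.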
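Wherever viability, T/C is given: 100% = DMSO vehicle-treated control wells.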

CC(Cn1ccc(-c2ccc(C#N)c(Cl)c2)n1)NC(=O)c1cc(C(C)O)[nH]n1 (stereo not given) + Cc1nc(NC(=O)N2CCCC2C(N)=O)sc1-c1ccnc(C(C)(C)C(F)(F)F)c1
IC50 [1]: > 10 µM | IC50 [2]: > 10 µM | IC50 [3]: > 10 µM | IC50 [4]: > 10 µM | IC50 [5]: < 0.0316 µM | IC50 [6]: < 0.0316 µM | viability, T/C [7]: 110% | viability, T/C [8]: 87.1% | viability, T/C [9]: 114% | viability, T/C [10]: 102% | viability, T/C [11]: 102% | viability, T/C [12]: 87.5% | viability, T/C [13]: 104% | viability, T/C [14]: 94.6% | viability, T/C [15]: 105% | viability, T/C [16]: 91.6% | viability, T/C [17]: 98.5% | viability, T/C [18]: 89.2% | viability, T/C [19]: 91.2% | viability, T/C [20]: 88.2% | viability, T/C [21]: 94.4% | viability, T/C [22]: 89.6% | viability, T/C [23]: 98.1% | viability, T/C [24]: 86.7% | viability, T/C [25]: 71.7% | viability, T/C [26]: 76.7% | viability, T/C [27]: 73.9% | viability, T/C [28]: 77.8% | viability, T/C [29]: 81.3% | viability, T/C [30]: 62.3% | viability, T/C [31]: 44.9% | viability, T/C [32]: 45% | viability, T/C [33]: 48.5% | viability, T/C [34]: 46.5% | viability, T/C [35]: 49.9% | viability, T/C [36]: 37% | viability, T/C [37]: 24.4% | viability, T/C [38]: 22.5% | viability, T/C [39]: 22% | viability, T/C [40]: 26.9% | viability, T/C [41]: 28% | viability, T/C [42]: 17.4%

CNC(=O)c1ccc(N2C(=S)N(c3ccc(C#N)c(C(F)(F)F)c3)C(=O)C2(C)C)cc1F + CC(Nc1ncnc2nc[nH]c12)c1cc2cccc(Cl)c2c(=O)n1-c1ccccc1
IC50 [1]: > 10 µM | IC50 [2]: > 10 µM | IC50 [3]: > 10 µM | IC50 [4]: > 10 µM | IC50 [5]: > 10 µM | IC50 [6]: > 10 µM | viability, T/C [7]: 111% | viability, T/C [8]: 93% | viability, T/C [9]: 109% | viability, T/C [10]: 89.1% | viability, T/C [11]: 86.2% | viability, T/C [12]: 75.4% | viability, T/C [13]: 117% | viability, T/C [14]: 91.1% | viability, T/C [15]: 104% | viability, T/C [16]: 86.6% | viability, T/C [17]: 74.3% | viability, T/C [18]: 68.5% | viability, T/C [19]: 96.9% | viability, T/C [20]: 105% | viability, T/C [21]: 102% | viability, T/C [22]: 80.2% | viability, T/C [23]: 76.5% | viability, T/C [24]: 63.1% | viability, T/C [25]: 97.4% | viability, T/C [26]: 102% | viability, T/C [27]: 106% | viability, T/C [28]: 91.4% | viability, T/C [29]: 73% | viability, T/C [30]: 69.1% | viability, T/C [31]: 100% | viability, T/C [32]: 100% | viability, T/C [33]: 100% | viability, T/C [34]: 84.3% | viability, T/C [35]: 76% | viability, T/C [36]: 77.7% | viability, T/C [37]: 89% | viability, T/C [38]: 80.9% | viability, T/C [39]: 95.8% | viability, T/C [40]: 81% | viability, T/C [41]: 77.4% | viability, T/C [42]: 68.4%

Cn1nccc1Nc1nccc(-c2ccn(C(CO)c3ccc(Cl)c(F)c3)c(=O)c2)n1 (stereo not given)
viability, T/C (compound 0.0316 µM): 112% [middle of 4 runs] | viability, T/C (compound 0.1 µM): 99.8% [middle of 4 runs] | viability, T/C (compound 0.316 µM): 108% [middle of 4 runs] | viability, T/C (compound 1 µM): 90.7% [middle of 4 runs] | viability, T/C (compound 3.16 µM): 93.1% [middle of 4 runs] | viability, T/C (compound 10 µM): 44% [middle of 4 runs] | IC50 (curve of compound): 8.75 µM [middle of 4 runs]

CC(C)NCC(C(=O)N1CCN(c2ncnc3c2C(C)CC3O)CC1)c1ccc(Cl)cc1 (stereo not given)
viability, T/C (compound 0.0316 µM): 93.1% [middle of 4 runs] | viability, T/C (compound 0.1 µM): 82.9% [middle of 4 runs] | viability, T/C (compound 0.316 µM): 78.5% [middle of 4 runs] | viability, T/C (compound 1 µM): 51.7% [middle of 4 runs] | viability, T/C (compound 3.16 µM): 36.8% [middle of 4 runs] | viability, T/C (compound 10 µM): 19.9% (2×) and 18.6% and 19.6% | IC50 (curve of compound): 1.25 µM [middle of 4 runs]

CC(Cn1ccc(-c2ccc(C#N)c(Cl)c2)n1)NC(=O)c1cc(C(C)O)[nH]n1 (stereo not given) + COc1c(OCCCN2CCOCC2)ccc2c3n(c(=NC(=O)c4cnc(N)nc4)nc12)CCN3
IC50 (curve of first compound, second compound 0.00316 µM): > 10 µM | IC50 (curve of first compound, second compound 0.01 µM): > 10 µM | IC50 [1]: > 10 µM | IC50 [2]: < 0.0316 µM | IC50 [3]: < 0.0316 µM | IC50 [4]: < 0.0316 µM | viability, T/C (second compound 0.00316 µM, first compound 0.0316 µM): 110% | viability, T/C (second compound 0.00316 µM, first compound 0.1 µM): 90.4% | viability, T/C (second compound 0.00316 µM, first compound 0.316 µM): 99.9% | viability, T/C (second compound 0.00316 µM, first compound 1 µM): 80.3% | viability, T/C (second compound 0.00316 µM, first compound 3.16 µM): 108% | viability, T/C (second compound 0.00316 µM, first compound 10 µM): 86.8% | viability, T/C (second compound 0.01 µM, first compound 0.0316 µM): 91.4% | viability, T/C (second compound 0.01 µM, first compound 0.1 µM): 83.7% | viability, T/C (second compound 0.01 µM, first compound 0.316 µM): 87.4% | viability, T/C (second compound 0.01 µM, first compound 1 µM): 103% | viability, T/C (second compound 0.01 µM, first compound 3.16 µM): 86.6% | viability, T/C (second compound 0.01 µM, first compound 10 µM): 72.8% | viability, T/C [7]: 60.4% | viability, T/C [8]: 64.4% | viability, T/C [9]: 59.8% | viability, T/C [10]: 68.7% | viability, T/C [11]: 75.3% | viability, T/C [12]: 58.6% | viability, T/C [13]: 26.6% | viability, T/C [14]: 25.5% | viability, T/C [15]: 27.3% | viability, T/C [16]: 30.1% | viability, T/C [17]: 27.9% | viability, T/C [18]: 25.3% | viability, T/C [19]: 7.87% | viability, T/C [20]: 8.84% | viability, T/C [21]: 7.77% | viability, T/C [22]: 9.07% | viability, T/C [23]: 10.8% | viability, T/C [24]: 7.91% | viability, T/C [25]: 5.17% | viability, T/C [26]: 4.25% | viability, T/C [27]: 3.21% | viability, T/C [28]: 3.76% | viability, T/C [29]: 4.49% | viability, T/C [30]: 3.05%
